Assay results from publication PMC8351955, “Targeting Mycobacterium tuberculosis response to environmental cues for the development of effective antitubercular drugs” (PLoS Biology, 2021).
Values joined by “and” are separate entries in the source; they are usually repeats but may differ in a detail not shown here. Equal values may be shown once. Read-outs that look alike come from different tables or passages of the source.

Legend:
[1] = Vero cell toxicity assay (MTS); assay type: cell-based; details: African green monkey, Vero cells
Protocol: Vero cells (African green monkey kidney epithelial cells; ATCC CCL-81) were maintained in DMEM + 10% FBS. For the cell toxicity assay, Vero cells were plated at 1 × 10^5 cells/well in a 96-well plate and incubated for 2 to 3 hours to allow cells to settle. The test compound was dissolved in DMSO at a final concentration of 12 mg/ml. The test compound solution was then added to plated cells, resulting in final test concentrations of 50 to 0.78 μg/ml, with each concentration tested at least in duplicate. To evaluate […] cell viability, 20 μl of a 1:20 MTS:PMS reagent (Promega CellTiter 96 AQueous nonradioactive cell proliferation assay kit) was added to each well after 72 hours of incubation at 37°C, and the plate then incubated for an additional 3 hours. Absorbance at 490 nm was read on a Molecular Devices SpectraMax M5 microplate reader. The CC50 (the minimal amount of compound that inhibited Vero cell growth by 50%) was extrapolated by plotting absorbance at 490 nm versus the concentration […].

[2] = test system: CDC1551(rv2390c′::GFP) reporter Mtb strain; details: for Normalized % induction: Fig. 2C, DMSO = 100
[3] = test system: Mtb-infected J774 cells; details: 10 μM, 24 hours, 5 days post-infection
[4] = test system: Mtb; assay: Mtb growth assay in cholesterol medium (OD600); details: for OD600: Fig. 2G
Description: Bacterial growth was tracked by measuring OD600 every 3 days for 12 days. […] Bacterial growth was tracked by measurement of OD600 every 3 days over 12 days.

[5] = Pharmacokinetic assay, single oral dose in CD-1 mice; assay type: in vivo; details: female; for AUC(0-t): mouse, plasma, CD-1 mice, read-out: plasma AUC0–5h
Protocol: Blood samples were collected in K2EDTA-coated tubes predose, 0.5, 1, 3, and 5 hours post-dose, placed on ice, and centrifuged to recover plasma. The recovered plasma was kept at −80°C as needed prior to analysis, which was performed as previously described. In brief, a Sciex Applied Biosystems Qtrap 4000 triple-quadrupole mass spectrometer coupled to an Agilent 1260 HPLC system was used for HPLC coupled to tandem mass spectrometry (LC–MS/MS) quantitative analysis of the samples, with chromatography attained using an Agilent Zorbax SB-C8 column (2.1 × 30 mm; particle size, 3.5 μm) and a reverse-phase gradient elution. The aqueous mobile phase consisted of Milli-Q deionized water with 0.1% formic acid (A), while the organic mobile phase was 0.1% formic acid in acetonitrile (B). The gradient setup was as follows: 5% to 90% B over 2 minutes, 1 minute at 90% B, then an immediate drop to 5% B and an additional 1 minute at 5% B. Quantification of molecules was carried out via multiple reaction monitoring of parent/daughter transitions in electrospray positive ionization mode, and sample analyses accepted if quality control and standard samples had concentrations within 20% of the nominal concentration. Preparation of compounds for generation of standard curves and quality control spiking solutions were performed as previously described. Data were processed using Analyst software (Version 1.6.2; Applied Biosystems Sciex, Framingham, MA).

[6] = test system: CDC1551(rv2390c′::GFP) reporter Mtb strain, response to high [Cl−]; assay: microbe, parasite or virus in culture; assay type: cell-based, Mycobacterium tuberculosis
[7] = Mouse plasma stability; assay type: in vitro ADME; details: 5-h incubation
[8] = test system: Mtb growth in cholesterol media; set-up: method as in PubChem AID 1259343; details: ref PubChem AID 1259343; cited from earlier work
[9] = test system: WT Mtb (Erdman) in primary murine BMDMs; assay: Primary murine bone marrow-derived macrophage infection, CFU; assay type: cell-based, Mycobacterium tuberculosis; details: for CFU/ml in BMDMs, average: Fig 1I; for CFU/ml: Fig. 2E, 10 µM
Protocol: C57BL/6J wild-type mice (Jackson Laboratories) were used for extraction of BMDMs. Cells were harvested and expanded in DMEM containing 10% FBS, 15% L-cell conditioned media, 2 mM L-glutamine, 1 mM sodium pyruvate, and penicillin/streptomycin as needed in a 37°C incubator in a 5% CO2 atmosphere. […] Macrophages were lysed with water containing 0.01% sodium dodecyl sulfate and a dilution series of the samples plated on 7H10 agar for CFU determination.

## CCSc1ncc(CN2CCN(c3nc4ccccc4o3)CC2)cn1 [C6, 2-(4-((2-(ethylthio)pyrimidin-5-yl)methyl)piperazin-1-yl)benzo[d]oxazole]
[1]
  CC50 at 72 h: > 50 µg/mL
[2]; average of 3 replicates
  Normalized % induction: 141.019%
[2]; individual replicates
  Normalized % induction: 121.516% and 141.974% and 159.566%
[2]; pH 7
  Ability to increase rv2390c′::GFP reporter signal in high [Cl−]: increased rv2390c′::GFP reporter signal
[3]
  Accumulation in Mtb-infected J774 cells: confirmed C6 accumulation
[4]; 10 μM, OD600 over 12 days
  Inhibition of Mtb growth in cholesterol media: inhibited Mtb growth
[4]; day 3, average
  OD600: 0.06
[4]; day 3, individual replicates
  OD600: 0.06
[4]; day 6, average
  OD600: 0.09333
[4]; day 6, individual replicates
  OD600: 0.1 (2×) and 0.08
[4]; day 9, average
  OD600: 0.12
[4]; day 9, individual replicates
  OD600: 0.12 and 0.1 and 0.14
[4]; day 12, average
  OD600: 0.1533
[4]; day 12, individual replicates
  OD600: 0.14 (2×) and 0.18
[5]; CD-1, mouse, 5-hour partitioning between plasma and lung, 25 mg/kg po, read-out: Clung/Cplasma
  Kp at 5 h: 0.86
[5]; single 5 mg/kg po dose
  AUC(0-t): 5480 ng·h/mL
[5]; single 25 mg/kg po dose
  AUC(0-t): 25700 ng·h/mL
[6]; 0.0390625 µM, Fig 1C
  NPA - rv2390c'::GFP, average: 83.3%
[6]; 0.078125 µM, Fig 1C
  NPA - rv2390c'::GFP, average: 86.0333%
[6]; 0.15625 µM, Fig 1C
  NPA - rv2390c'::GFP, average: 80.7667%
[6]; 0.3125 µM, Fig 1C
  NPA - rv2390c'::GFP, average: 92.0333%
[6]; 0.625 µM, Fig 1C
  NPA - rv2390c'::GFP, average: 91.4667%
[6]; 1.25 µM, Fig 1C
  NPA - rv2390c'::GFP, average: 105.667%
[6]; 2.5 µM, Fig 1C
  NPA - rv2390c'::GFP, average: 116.333%
[6]; 5 µM, Fig 1C
  NPA - rv2390c'::GFP, average: 113%
[6]; 10 µM, Fig 1C
  NPA - rv2390c'::GFP, average: 126.667%
[6]; 20 µM, Fig 1C
  NPA - rv2390c'::GFP, average: 131%
[6]; Mycobacterium tuberculosis, 144 h, pH 6.4, […], DMSO positive control = 100%, read-out: Primary screen rv2390c'::GFP NPA%
  activity at 10 µM: 164%
[6]; Mycobacterium tuberculosis, 144 h, 10 µM, pH 6.4, 250 mM NaCl, 6 days, read-out: rv2390c'::GFP validation assay NPA% at 10 µM compound
  activity at 10 µM: 127 ± 1.5%
[6]; Mycobacterium tuberculosis, 144 h, 20 µM, pH 6.4, 250 mM NaCl, 6 days, read-out: rv2390c'::GFP validation assay NPA% at 20 µM compound
  activity at 20 µM: 131 ± 3.6%
[6]; Mycobacterium tuberculosis, 144 h, pH 6.4, 250 mM NaCl, 6 days, Fig 1C, read-out: AC50 (activatory concentration, 50%), rv2390c′::GFP
  AC50: 1800 nM
[7]
  remaining at 5 h: > 99.9%
[8]
  Call in screen for inhibition of Mtb growth in cholesterol media: positive for growth inhibition
[9]; 10 μM, 8-day infection time course, vs DMSO
  Effect on bacterial load / Mtb growth in primary murine BMDMs: significant decrease in bacterial load
[9]; 10 μM, day 2
  CFU/ml in BMDMs, average: 153500 CFU/ml
[9]; 10 μM, day 4
  CFU/ml in BMDMs, average: 188500 CFU/ml
[9]; 10 μM, day 6
  CFU/ml in BMDMs, average: 283000 CFU/ml
[9]; 10 μM, day 8
  CFU/ml in BMDMs, average: 322500 CFU/ml
[9]; day 2, average
  CFU/ml: 426000 CFU/ml
[9]; day 2, individual replicates
  CFU/ml: 406000 CFU/ml and 418000 CFU/ml and 454000 CFU/ml
[9]; day 4, average
  CFU/ml: 573333 CFU/ml
[9]; day 4, individual replicates
  CFU/ml: 580000 CFU/ml and 640000 CFU/ml and 500000 CFU/ml
[9]; day 6, average
  CFU/ml: 746667 CFU/ml
[9]; day 6, individual replicates
  CFU/ml: 700000 CFU/ml and 660000 CFU/ml and 880000 CFU/ml
[9]; day 8, average
  CFU/ml: 1020000 CFU/ml
[9]; day 8, individual replicates
  CFU/ml: 880000 CFU/ml and 1100000 CFU/ml and 1080000 CFU/ml
